Blank lines part the entries; values can stand above or below the compound they belong to.
Tested on: 186277-243-T-J2-PDC multi-cell spheroid viability
Test: Anticancer human tumor 186277-243-T-J2-PDC patient-derived colon adenocarcinoma cell line growth inhibition [PI3K]
Details: for IC50: curve of first compound; for viability, T/C: stronger effect = lower value
From the text: Combinatorial screen of targeted agents with the PI3K inhibitors inavolisib, alpelisib, duvelisib, and copanlisib in multi-cell type tumor spheroids
A high-throughput screen of multi-cell type tumor spheroids was designed to identify active combinations of targeted small molecules and PI3K pathway inhibitors. Complex spheroids include a stromal component modeled by human endothelial cells (HUVEC) and fibroblasts modeled by human mesenchymal stem cells (MSCs). The concentration ranges selected for each drug and investigational agent were based upon clinically achievable concentrations if the clinical Cmax of the agent was known.
Compounds. The drugs and investigational agents: inavolisib (NSC800729), alpelisib (NSC765974), duvelisib (NSC772469), copanlisib (NSC816437), ipatasertib (NSC767898), afuresertib (NSC778305), talazoparib (NSC767125), sapanisertib (NSC764658), selumetinib (NSC741078), tovorafenib (DAY101, NSC766906), vemurafenib (NSC761431), ravoxertinib (NSC781343), sotorasib (NSC818433), MRTX1133 (NSC 836407), abemaciclib (NSC 768073), palbociclib (NSC758247), venetoclax (NSC 766270), SY5609 (NSC837396), enzalutamide (NSC755605), and darolutamide (NSC825331), were obtained from the National Cancer Institute (NCI) Developmental Therapeutics Program Chemical Repository. The FDA-approved anticancer drug set is available from the NCI Developmental Therapeutics Program. […] The stock solutions were prepared in dimethyl sulfoxide (DMSO, Sigma-Aldrich, St. Louis, MO, cat. D2650) at 800-fold the tested concentration and stored at -70 degrees C prior to their use. All drugs and investigational agents were tested over a range starting from a high concentration at or near the clinical Cmax and decreasing in half-log increments. If the clinical Cmax for an agent had not been determined, the highest concentration tested was 10 microM.
Cell Culture. All cells were maintained in an incubator at 37 degrees C and 5% CO2 with 95% humidity. The PDC lines were cultured according to standard operating procedures established by the NCI PDMR (https://pdmr.cancer.gov/sops/default.htm). All PDCs were thawed and cultured in Matrigel-coated flasks prepared with a working solution of 1X Ham's F-12 nutrient mix, without supplementation (Invitrogen, Waltham, MA, cat. 11765054), 100 U/mL penicillin-streptomycin (Invitrogen, cat. 15140122), and 2.5% Matrigel (Corning Inc., Corning, NY, cat. 354248) for the first three passages. The 354836-022-R-J1-PDC, 475296-252-R-J1-PDC, and 997726-040-R-J2-PDC lines were cultured in 6A media, which includes advanced DMEM/F-12 (Thermo Fisher Scientific, cat. 12634028), 10 mM HEPES (Thermo Fisher Scientific, cat. 15630080), 1X GlutaMAX supplement (Thermo Fisher Scientific, cat. 35050061), 0.1 mg/mL primocin (InvivoGen, San Diego, CA, cat. ant-pm-2), 10% defined fetal bovine serum, heat inactivated (HyClone Laboratories Inc., Logan, UT, cat. SH30070.03HI), 50% L-WRN conditioned media (ATCC, cat. CRL-3276), 1.25 mM N-Acetyl-L-cysteine (Sigma-Aldrich, cat. A9165), 10 mM nicotinamide (Sigma-Aldrich, cat. N0636), 1X B-27 supplement (Thermo Fisher Scientific, cat. 17504044), 1X N-2 supplement (Thermo Fisher Scientific, cat. 17502048), and 10 microM Y-27632 dihydrochloride (Tocris Bioscience, Bristol, United Kingdom, cat. 1254). The 624824-186-R-J2-PDC line was cultured in 6C/Colon 1B media, which includes all 6A media components plus 50 ng/mL human EGF recombinant protein (Thermo Fisher Scientific, cat. PHG0311). […]

[1] = second compound 0.0316 µM, first compound 0.0316 µM
[2] = second compound 0.0316 µM, first compound 0.1 µM
[3] = second compound 0.0316 µM, first compound 0.316 µM
[4] = second compound 0.0316 µM, first compound 1 µM
[5] = second compound 0.0316 µM, first compound 3.16 µM
[6] = second compound 0.0316 µM, first compound 10 µM
[7] = second compound 0.1 µM, first compound 0.0316 µM
[8] = second compound 0.1 µM, first compound 0.1 µM
[9] = second compound 0.1 µM, first compound 0.316 µM
[10] = second compound 0.1 µM, first compound 1 µM
[11] = second compound 0.1 µM, first compound 3.16 µM
[12] = second compound 0.1 µM, first compound 10 µM
[13] = second compound 0.316 µM, first compound 0.0316 µM
[14] = second compound 0.316 µM, first compound 0.1 µM
[15] = second compound 0.316 µM, first compound 0.316 µM
[16] = second compound 0.316 µM, first compound 1 µM
[17] = second compound 0.316 µM, first compound 3.16 µM
[18] = second compound 0.316 µM, first compound 10 µM
[19] = second compound 1 µM, first compound 0.0316 µM
[20] = second compound 1 µM, first compound 0.1 µM
[21] = second compound 1 µM, first compound 0.316 µM
[22] = second compound 1 µM, first compound 1 µM
[23] = second compound 1 µM, first compound 3.16 µM
[24] = second compound 1 µM, first compound 10 µM
[25] = second compound 3.16 µM, first compound 0.0316 µM
[26] = second compound 3.16 µM, first compound 0.1 µM
[27] = second compound 3.16 µM, first compound 0.316 µM
[28] = second compound 3.16 µM, first compound 1 µM
[29] = second compound 3.16 µM, first compound 3.16 µM
[30] = second compound 3.16 µM, first compound 10 µM
[31] = second compound 10 µM, first compound 0.0316 µM
[32] = second compound 10 µM, first compound 0.1 µM
[33] = second compound 10 µM, first compound 0.316 µM
[34] = second compound 10 µM, first compound 1 µM
[35] = second compound 10 µM, first compound 3.16 µM
[36] = second compound 10 µM, first compound 10 µM
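Note: spheroids exposed to compounds for seven days before viability reading.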
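Throughout, for viability, T/C: 100% = DMSO vehicle control viability.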

IC50 (second compound 0.0316 µM): 4130 nM
IC50 (second compound 0.1 µM): 4350 nM
IC50 (second compound 0.316 µM): 4090 nM
IC50 (second compound 1 µM): 3950 nM
IC50 (second compound 3.16 µM): 4000 nM
IC50 (second compound 10 µM): 865 nM
Structure (SMILES): CC1(C)CCC(Nc2ncc(C(F)(F)F)c(-c3c[nH]c4c(P(C)(C)=O)c(C#N)ccc34)n2)CN1 (centres undefined) + CC(Nc1ncnc2nc[nH]c12)c1cc2cccc(Cl)c2c(=O)n1-c1ccccc1
viability, T/C [1]: 77.7%
viability, T/C [2]: 61.8%
viability, T/C [3]: 58%
viability, T/C [4]: 59.9%
viability, T/C [5]: 66.5%
viability, T/C [6]: 1.23%
viability, T/C [7]: 92.4%
viability, T/C [8]: 57.1%
viability, T/C [9]: 62%
viability, T/C [10]: 64.4%
viability, T/C [11]: 68.6%
viability, T/C [12]: 1.55%
viability, T/C [13]: 81.3%
viability, T/C [14]: 57.7%
viability, T/C [15]: 58.3%
viability, T/C [16]: 64.1%
viability, T/C [17]: 64.2%
viability, T/C [18]: 0.31%
viability, T/C [19]: 75.4%
viability, T/C [20]: 61%
viability, T/C [21]: 60.8%
viability, T/C [22]: 63%
viability, T/C [23]: 61.9%
viability, T/C [24]: 0.97%
viability, T/C [25]: 80.1%
viability, T/C [26]: 69.1%
viability, T/C [27]: 63.4%
viability, T/C [28]: 67.2%
viability, T/C [29]: 63%
viability, T/C [30]: 0.64%
viability, T/C [31]: 72%
viability, T/C [32]: 59.5%
viability, T/C [33]: 55.1%
viability, T/C [34]: 53.8%
viability, T/C [35]: 30.2%
viability, T/C [36]: 1.26%

IC50 (second compound 0.0316 µM): 960 nM
IC50 (second compound 0.1 µM): 253 nM
IC50 (second compound 0.316 µM): 225 nM
IC50 (second compound 1 µM): 157 nM
IC50 (second compound 3.16 µM): < 31.6 nM
IC50 (second compound 10 µM): < 31.6 nM
Structure (SMILES): Cn1ncc(Cl)c1-c1cc(C(=O)NC(CN)Cc2cccc(F)c2)sc1Cl (centres undefined) + Cc1nc(NC(=O)N2CCCC2C(N)=O)sc1-c1ccnc(C(C)(C)C(F)(F)F)c1
viability, T/C [1]: 96.2%
viability, T/C [2]: 87.8%
viability, T/C [3]: 56.8%
viability, T/C [4]: 47.8%
viability, T/C [5]: 43%
viability, T/C [6]: 17.3%
viability, T/C [7]: 112%
viability, T/C [8]: 68%
viability, T/C [9]: 43.4%
viability, T/C [10]: 32.4%
viability, T/C [11]: 33.2%
viability, T/C [12]: 11.6%
viability, T/C [13]: 114%
viability, T/C [14]: 66.2%
viability, T/C [15]: 43%
viability, T/C [16]: 26.3%
viability, T/C [17]: 25.3%
viability, T/C [18]: 9.1%
viability, T/C [19]: 95%
viability, T/C [20]: 65.7%
viability, T/C [21]: 25%
viability, T/C [22]: 14.7%
viability, T/C [23]: 17.2%
viability, T/C [24]: 3.49%
viability, T/C [25]: 48.7%
viability, T/C [26]: 33.7%
viability, T/C [27]: 19.6%
viability, T/C [28]: 13.7%
viability, T/C [29]: 8.89%
viability, T/C [30]: 1.65%
viability, T/C [31]: 15.7%
viability, T/C [32]: 8.3%
viability, T/C [33]: 6.89%
viability, T/C [34]: 6.6%
viability, T/C [35]: 3.36%
viability, T/C [36]: 3.79%

— PubChem BioAssay AID1963983 (Molecular Pharmacology Branch, DTP, NCI, 2024)
